# Results published in patent US4582844A, “Antithrombotic 4,5 di-t-butyl-imidazole derivatives” (Hoffmann-La Roche Inc., priority 1980, dated 1986).
# Tested on: Human platelet-rich plasma (blood platelets)
# Assay: Collagen-induced blood platelet aggregation (aggregometer method of Born; maximum aggregation velocity)
# Assay type: cell-based
# Details: human citrated platelet-rich plasma, 10 min preincubation at 37° C., collagen fibrils
# Description: The maximum aggregation velocity was taken as the test parameter and the effective concentration (EC50) was ascertained from dosage-activity curves.
# Human platelet-rich plasma was obtained by centrifugation from citrated venous blood. The experiments were carried out with suspensions of the test substances in 0.9% sodium chloride. 0.18 ml of citrate plasma was treated with a 10 μl suspension of the test compound and incubated at 37° C. for 10 minutes, whereupon the aggregation was initiated by adding 10 μl of a suspension of collagen fibrils.
row,Structure (SMILES),EC50 [nM]
1,"CC(C)(C)c1nc(-c2ccc(F)cc2)[nH]c1C(C)(C)C [4,5-Di-t-butyl-2-(4-fluorophenyl)-imidazole]",500
2,"CC(C)(C)c1nc(-c2ccccc2)[nH]c1C(C)(C)C [4,5-Di-t-butyl-2-phenylimidazole, 4,5-di-t-butyl-2-phenylimidazole]",600

# Further lines, results first:
row,EC50 [nM],Structure (SMILES)
1,720,"COc1cc(-c2nc(C(C)(C)C)c(C(C)(C)C)[nH]2)cc(OC)c1OC [4,5-di-t-butyl-2-(3,4,5-trimethoxyphenyl)-imidazole]"
2,550,"CC(C)(C)c1nc(-c2ccc3c(c2)OCO3)[nH]c1C(C)(C)C [4,5-di-t-butyl-2-(3,4-methylenedioxyphenyl)-imidazole]"
3,14400,"COc1cc(-c2nc(C(C)(C)C)c(C(C)(C)C)[nH]2)cc2c1OCO2 [4,5-di-t-butyl-2-(5-methoxy-3,4-methylenedioxyphenyl)-imidazole]"
